Earlier results, collected in patent US20170119738A1, “PHARMACEUTICAL COMPOSITIONS FOR RIZATRIPTAN” (Dr. Reddy's Laboratories, Ltd., priority 2015, published 2017).

Experiments:
[1] = system: human cloned 5-HT1B/1D receptors

binding affinity [1]: high affinity
SMILES: CN(C)CCc1c[nH]c2ccc(Cn3cncn3)cc12 [Rizatriptan, N,N-dimethyl-2-[5-(1H-1,2,4-triazol-1-ylmethyl)-1H-indol-3-yl]ethanamine]
pain-free response at 2 hours, symptom-free response at 2 hours, 24 hour sustained pain-free response (migraine headache; oral 10 mg vs oral sumatriptan, naratriptan, zolmitriptan (Adelman et al. 2001)): more effective
effectiveness for pain relief (PR) and pain freedom (PF) (migraine headache; oral 10 mg vs other oral triptans (Ng-Mak et al. 2007)): significantly more effective than other oral triptans
